Patent US9421181B2, “Antihypoxic pharmaceutical composition and application thereof” (CHANGZHOU HI-TECH DISTRICT MULTIPLE DIMENSION INDUSTRY …, priority 2013, dated 2016)
Structures can show the parent of a compound that is named as a salt.

Legend:
[1] = system: mice under the condition of normobaric hypoxia; test: Hypoxia tolerance and survival time of mice under normobaric hypoxia (sealed bottle with soda lime); assay type: in vivo; conditions: intragastric once a day 7 days
Description: (§1) Choose 100 male mice with weight of 20±2 g, randomly group them into 10 by weight with each group of 10 mice, and then inject 10 ml/kg preparation to experimental groups, and the same volume of normal saline to control group by tail intravenous injection once a day for consecutive 7 days. One hour after the last injection, put each mouse into a 160 ml wild-mouth bottle, into which 5 g soda lime has been pre-added, and then seal tightly the caps with petroleum jelly. Record survival time of the mice with death as the indicator.
(§2) Choose 80 male mice with weight of 20±2 g, randomly group them into 8 by weight with each group of 10 mice, and then administer 20 ml/kg preparation intragastrically to the mice of experimental groups, and the same volume of normal saline to control group once a day for consecutive 7 days. One hour after the last administration, put each mouse into a 160 ml wild-mouth bottle, into which 5 g soda lime has been pre-added, and then seal tightly the caps with petroleum jelly. Record survival time of the mice with death as the indicator.
as §2, with “40” for “80”, “4” for “8”
as §1, with “Choose 370” for “Choose 100”, “into 37” for “into 10”, “group” for “group by tail intravenous injection”

[2] = system: mice model of acute brain hypoxia; test: Mice model of acute brain hypoxia: breathing time after decollation; assay type: in vivo, Kunming mice; conditions: intragastric once a day 7 days
Description: (§3) Randomly group 70 Kunming male mice into 7 groups: control group, group of L-carnitine 450 mg/kg, group of trimetazidine 9 mg/kg, group of vinpocetine 1.5 mg/kg, group of L-carnitine 450+trimetazidine 9 mg/kg, group of trimetazidine 9+vinpocetine 1.5 mg/kg, and group of L-carnitine 450+trimetazidine 9+vinpocetine 1.5 mg/kg, with each group of 10 mice. Administer […] preparation intragastrically to the mice of experimental groups, and the same volume of normal saline to control group once a day for consecutive 7 days. One hour after the last administration, behead the mice immediately from behind the ear, and stopwatch the breathing time of mice after their decollation.

[3] = system: brain tissue of the mice; test: Content of EAA (Glu, Asp, GABA, Gly) in brain tissue after decollation; assay type: in vivo, Kunming mice; conditions: intragastric 7 days
Description: as §3
Biochemical indicator test of brain tissue: After death of the mice, immediately get their brain tissues in ice bath, wash them in ice saline to remove the residual blood, and then add ice […] according to the proportion of 1:9. Under the condition of ice bath, high-speed homogenate machine (10 s per times, at intervals of 15 s for 4 times) is used to make the brain tissue into 10% cerebral homogenate. Centrifuge the homogenate under the temperature of 4° C. with the speed of 2000 r/min for 5 min to separate the supernatant, and detect the content of glutamic acid (Glu), aspartic acid (Asp), aminobutyric acid (GABA), and glycine (Gly) in the brain tissue of the mice by amino acid analyzer. After brain injury, the content of Glu, Asp, GABA and Gly, etc. (representatives of the excitatory amino acid (EAA)) in the brain is higher. In particular, one of the important mechanisms that could cause the death of secondary brain injury neurons is the excessive release of Glu. An important reason that leads to delayed neuronal death is the cascade of damage due to calcium overload in the neurons, which is caused by the activation of receptor N-methyl-D-aspartate (NMDA) by Glu. The degree to which the mitochondrial function is damaged determines the death method of neurons [Clemens J A, Stephenson D T, Smalsting E B. Global ischemia activate nuclear. Storke, 1997, 28:1073-1076].

## C[N+](C)(C)C[C@H](O)CC(=O)[O-] [L-carnitine]
[1]; L-carnitine 450 mg/kg alone
  Prolonged Survival Time: 31.6%
  Survival Time: 29.6 ± 3.6 min
[2]; L-carnitine 450 mg/kg
  Breathing Time after Decollation: 18.6 ± 1.2 S
[3]; L-carnitine 450 mg/kg
  Asp content in brain tissue: 15.68 ± 4.23 µmol/L
  GABA content in brain tissue: 3.71 ± 1.11 µmol/L
  Glu content in brain tissue: 18.45 ± 1.22 µmol/L
  Gly content in brain tissue: 3.54 ± 1.29 µmol/L

## CCOC(=O)C1=C[C@]2(CC)CCCN3CCc4c(n1c1ccccc41)[C@@H]32 [Vinpocetine, vinpocetine]
[1]; vinpocetine 1.5 mg/kg alone
  Prolonged Survival Time: 13.6%
  Survival Time: 25.1 ± 4.8 min
[2]; vinpocetine 1.5 mg/kg
  Breathing Time after Decollation: 19.5 ± 1.5 S
[3]; vinpocetine 1.5 mg/kg
  Asp content in brain tissue: 15.46 ± 2.21 µmol/L
  GABA content in brain tissue: 3.15 ± 1.05 µmol/L
  Glu content in brain tissue: 19.12 ± 2.01 µmol/L
  Gly content in brain tissue: 3.82 ± 1.84 µmol/L

## COc1ccc(CN2CCNCC2)c(OC)c1OC [Trimetazidine, trimetazidine hydrochloride]
[2]; trimetazidine 9 mg/kg
  Breathing Time after Decollation: 18.5 ± 2.1 S
[3]; trimetazidine 9 mg/kg
  Asp content in brain tissue: 15.21 ± 2.06 µmol/L
  GABA content in brain tissue: 3.44 ± 1.12 µmol/L
  Glu content in brain tissue: 17.02 ± 0.99 µmol/L
  Gly content in brain tissue: 3.49 ± 1.12 µmol/L
